Earlier results, collected in patent US6599496B2, “Endoscopy tissue stain” (Chek-Med Systems, Inc., priority 1999, dated 2003).

Test system: colon
Details: Hammond et al.

CC1(C)C(/C=C/C=C/C=C/C=C2\N(CCCCS(=O)(=O)O)c3ccc4ccccc4c3C2(C)C)=[N+](CCCCS(=O)(=O)[O-])c2ccc3ccccc3c21 [Indocyanine green]
permanence of the marking of lesions of the colon: does not have long term permanence
